Measured values reported in PubChem BioAssay (NCI).
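Each compound was tested at five concentrations against cells in 96-well plates for 48 hours. TGI denotes the concentration required for complete inhibition of growth.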

How the values were obtained:
Assay in all cases: growth of human tumour cells (NCI), 48 h
DU-145 prostate = system: DU-145 prostate
SK-MEL-28 melanoma = system: SK-MEL-28 melanoma
OVCAR-5 ovarian = system: OVCAR-5 ovarian
NCI/ADR-RES ovarian = system: NCI/ADR-RES ovarian
HS 578T breast = system: HS 578T breast
A498 renal = system: A498 renal
MDA-N = system: MDA-N
NCI-H23 lung = system: NCI-H23 lung
NCI-H522 lung = system: NCI-H522 lung
TK-10 renal = system: TK-10 renal
MCF7 breast = system: MCF7 breast
CAKI-1 renal = system: CAKI-1 renal
UACC-62 melanoma = system: UACC-62 melanoma
HOP-92 NSCLC = system: HOP-92 NSCLC
EKVX NSCLC = system: EKVX NSCLC
OVCAR-3 ovarian = system: OVCAR-3 ovarian
A549 NSCLC = system: A549 NSCLC
T-47D breast = system: T-47D breast
SNB-19 CNS = system: SNB-19 CNS
SK-MEL-5 melanoma = system: SK-MEL-5 melanoma
MDA-MB-231 breast = system: MDA-MB-231 breast
UACC-257 melanoma = system: UACC-257 melanoma
HL-60(TB) leukemia = system: HL-60(TB) leukemia
RPMI-8226 leukemia = system: RPMI-8226 leukemia
ACHN renal = system: ACHN renal
OVCAR-8 ovarian = system: OVCAR-8 ovarian
CCRF-CEM leukemia = system: CCRF-CEM leukemia
SK-OV-3 ovarian = system: SK-OV-3 ovarian
SF-268 CNS = system: SF-268 CNS
K-562 leukemia = system: K-562 leukemia
U251 CNS = system: U251 CNS
PC-3 prostate = system: PC-3 prostate
SW-620 colon = system: SW-620 colon
RXF 393 renal = system: RXF 393 renal
MDA-MB-435 = system: MDA-MB-435
MALME-3M melanoma = system: MALME-3M melanoma
COLO 205 colon = system: COLO 205 colon
786-0 renal = system: 786-0 renal
SN12C renal = system: SN12C renal
LOX IMVI melanoma = system: LOX IMVI melanoma
IGROV1 ovarian = system: IGROV1 ovarian
SK-MEL-2 melanoma = system: SK-MEL-2 melanoma
KM12 colon = system: KM12 colon
M14 melanoma = system: M14 melanoma
HCT-116 colon = system: HCT-116 colon
OVCAR-4 ovarian = system: OVCAR-4 ovarian
SNB-75 CNS = system: SNB-75 CNS
SF-539 CNS = system: SF-539 CNS
SF-295 CNS = system: SF-295 CNS
UO-31 renal = system: UO-31 renal
HT29 colon = system: HT29 colon
MOLT-4 leukemia = system: MOLT-4 leukemia
HOP-62 NSCLC = system: HOP-62 NSCLC
HCT-15 colon = system: HCT-15 colon
HCC-2998 colon = system: HCC-2998 colon
NCI-H460 lung = system: NCI-H460 lung
NCI-H226 lung = system: NCI-H226 lung

CCCCCc1cc2c(cc1O)CC[C@@H]1[C@@H]2CC[C@]2(C)[C@@H](O)CC[C@@H]12
TGI (DU-145 prostate): 31.4 µM
TGI (SK-MEL-28 melanoma): 30.7 µM
TGI (OVCAR-5 ovarian): 33.6 µM
TGI (NCI/ADR-RES ovarian): 37.7 µM
TGI (HS 578T breast): 46.5 µM
TGI (A498 renal): 36.1 µM
TGI (MDA-N): 35.1 µM
TGI (NCI-H23 lung): 40.3 µM
TGI (NCI-H522 lung): 42.7 µM
TGI (TK-10 renal): 34 µM
TGI (MCF7 breast): 40.2 µM
TGI (CAKI-1 renal): 40.4 µM
TGI (UACC-62 melanoma): 35.4 µM
TGI (HOP-92 NSCLC): 32.3 µM
TGI (EKVX NSCLC): 36.8 µM
TGI (OVCAR-3 ovarian): 29.4 µM
TGI (A549 NSCLC): 37.9 µM
TGI (T-47D breast): 55.5 µM
TGI (SNB-19 CNS): 40.3 µM
TGI (SK-MEL-5 melanoma): 34.7 µM
TGI (MDA-MB-231 breast): 33.3 µM
TGI (UACC-257 melanoma): 43.1 µM
TGI (HL-60(TB) leukemia): 41.4 µM
TGI (RPMI-8226 leukemia): 62.2 µM
TGI (ACHN renal): 27.5 µM
TGI (OVCAR-8 ovarian): 43 µM
TGI (CCRF-CEM leukemia): 92.8 µM
TGI (SK-OV-3 ovarian): 45 µM
TGI (SF-268 CNS): 38.9 µM
TGI (K-562 leukemia): 34.9 µM
TGI (U251 CNS): 38.1 µM
TGI (PC-3 prostate): 33.1 µM
TGI (SW-620 colon): 46.4 µM
TGI (RXF 393 renal): 38.3 µM
TGI (MDA-MB-435): 30.6 µM
TGI (MALME-3M melanoma): 35.5 µM
TGI (COLO 205 colon): 29.6 µM
TGI (786-0 renal): 28.9 µM
TGI (SN12C renal): 29.8 µM
TGI (LOX IMVI melanoma): 39.2 µM
TGI (IGROV1 ovarian): 36.9 µM
TGI (SK-MEL-2 melanoma): 43.5 µM
TGI (KM12 colon): 26.1 µM
TGI (M14 melanoma): 29.4 µM
TGI (HCT-116 colon): 31.6 µM
TGI (OVCAR-4 ovarian): 42.8 µM
TGI (SNB-75 CNS): 30.5 µM
TGI (SF-539 CNS): 39.5 µM
TGI (SF-295 CNS): 28.2 µM
TGI (UO-31 renal): 28.4 µM
TGI (HT29 colon): 41.2 µM
TGI (MOLT-4 leukemia): 85.3 µM
TGI (HOP-62 NSCLC): 41.7 µM
TGI (HCT-15 colon): 31.3 µM
TGI (HCC-2998 colon): 40 µM
TGI (NCI-H460 lung): 36.5 µM
TGI (NCI-H226 lung): 32.6 µM
